In PMC12621200, “Giving an Enzyme Scissors: Serotonin Derivatives as Potent Organocatalytic Switches for DNA Repair Enzyme OGG1” (Journal of Medicinal Chemistry, 2025):
Where two headings read alike, the source gives them in different places.

Assays:
S326C hOGG1 = molecular target: T1, S326C hOGG1 (Homo sapiens, UniProt O15527, S326C); test: Fluorophore-quencher assay with OGG1 mutants; type: biochemical; details: 0.25 μM of 38, 50 nM S326C hOGG1
T1 construct: made in house

OGG1 [1] = molecular target: T2, OGG1 (Homo sapiens, UniProt O15527); test: hOGG1 activity assay on radiolabeled 8-oxoG-containing oligonucleotide (urea-PAGE); type: biochemical; details: for stimulation of OGG1 AP lyase activity (incised substrate after 4 min): 6.25 μM TH10785, 6.25 μM 30, 10 μM 38, 10 nM hOGG1; for incision mode: elimination products of AP-site cleavage
T2 construct: made in house
T2 sequence (O15527 whole entry): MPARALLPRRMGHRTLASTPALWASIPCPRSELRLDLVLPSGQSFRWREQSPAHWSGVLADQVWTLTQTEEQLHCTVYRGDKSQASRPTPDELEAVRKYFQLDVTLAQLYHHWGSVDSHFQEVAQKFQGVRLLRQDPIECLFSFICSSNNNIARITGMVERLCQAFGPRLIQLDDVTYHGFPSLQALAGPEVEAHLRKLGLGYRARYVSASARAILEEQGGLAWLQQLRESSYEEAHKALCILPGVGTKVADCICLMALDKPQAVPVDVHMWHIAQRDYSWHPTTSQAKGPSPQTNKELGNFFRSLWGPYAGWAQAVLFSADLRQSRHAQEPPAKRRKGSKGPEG

Lys249Trp mutant of OGG1 = molecular target: T3, Lys249Trp mutant of OGG1 (Homo sapiens, UniProt O15527, K249W); test: Fluorophore-quencher assay with OGG1 mutants; type: biochemical; details: standard fluorescence assay
T3 construct: made in house
T3 sequence (O15527 whole entry K249W): as the sequence (O15527 whole entry) above, with K249W counted along it

[2] = system: C253Y, F319A, K249W or D268A hOGG1 (active site mutants); test: Fluorophore-quencher assay with OGG1 mutants; type: biochemical, human; details: 0.25 μM of 38, 10 nM enzyme
OGG1 [3] = molecular target: T2, OGG1; test: NaBH4 Schiff-base trapping assay; type: biochemical; details: AP or 8-oxoG DNA substrates; 6.25 μM TH10785, 6.25 μM 30, 10 μM 38
OGG1 [4] = molecular target: T2, OGG1; test: Biochemical fluorescence (fluorophore-quencher) assay of OGG1 incision rate, 8-oxoA substrate; details: for AC50 / AC50 (CI95%): concentration giving 50% of the incision rate of OGG1 with APE1 (2 nM) control; for AC50 (μM): biochemical assay of virtual screening hits (NCI samples), Table S1
[5] = system: panel of DNA glycosylases and NUDIX nucleotide binding proteins; test: Selectivity: lowest IC50 in glycosylase/NUDIX panel divided by OGG1 AC50; type: biochemical; details: lowest IC50 against panel / OGG1 AC50
[6] = system: BJ-RAS and BJ-TERT cell lines; test: Resazurin cell viability assay for toxicity testing; type: cell-based
NUDT5 [7] = molecular target: T4, NUDT5 (Homo sapiens, UniProt Q9UKK9); test: Selectivity screen, malachite green assay; type: biochemical; details: compound 30 at 99 µM
T4 construct: made in house

NUDT15 [8] = molecular target: T5, NUDT15 (Homo sapiens, UniProt Q9NV35); test: Selectivity screen, malachite green assay; type: biochemical; details: compound 30 at 99 µM
T5 construct: made in house
T5 sequence (Q9NV35 1-164): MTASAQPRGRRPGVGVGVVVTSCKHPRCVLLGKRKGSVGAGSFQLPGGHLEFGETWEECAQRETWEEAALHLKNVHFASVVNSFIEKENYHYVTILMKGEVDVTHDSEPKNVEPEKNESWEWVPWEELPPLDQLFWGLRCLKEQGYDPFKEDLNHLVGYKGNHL

NUDT22 = molecular target: T6, NUDT22 (Homo sapiens, UniProt Q9BRQ3); test: Selectivity screen, malachite green assay; type: biochemical; details: compound 30 at 99 µM
T6 construct: made in house
T6 sequence (Q9BRQ3 1-303): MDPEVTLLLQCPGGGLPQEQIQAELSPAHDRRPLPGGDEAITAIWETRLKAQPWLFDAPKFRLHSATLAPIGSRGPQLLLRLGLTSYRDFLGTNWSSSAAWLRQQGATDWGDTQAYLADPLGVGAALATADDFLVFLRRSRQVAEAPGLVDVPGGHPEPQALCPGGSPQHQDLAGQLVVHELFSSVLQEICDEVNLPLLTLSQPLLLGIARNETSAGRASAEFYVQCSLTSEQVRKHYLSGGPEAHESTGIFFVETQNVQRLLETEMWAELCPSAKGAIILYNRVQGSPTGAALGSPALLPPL

MPG = molecular target: T7, MPG (Homo sapiens, UniProt P29372); test: Selectivity screen, glycosylase inhibition in kinetic mode; type: biochemical; details: compound 30 at 99 µM
T7 construct: made in house
T7 sequence (P29372 18-298, species assumed): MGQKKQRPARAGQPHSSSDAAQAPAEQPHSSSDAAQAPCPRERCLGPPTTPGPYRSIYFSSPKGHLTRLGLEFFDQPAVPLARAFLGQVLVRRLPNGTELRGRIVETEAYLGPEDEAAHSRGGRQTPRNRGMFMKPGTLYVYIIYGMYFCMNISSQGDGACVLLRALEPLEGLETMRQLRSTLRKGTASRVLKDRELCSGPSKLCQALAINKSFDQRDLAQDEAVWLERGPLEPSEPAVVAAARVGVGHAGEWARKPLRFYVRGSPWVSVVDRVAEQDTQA

TDG = molecular target: T8, TDG (Homo sapiens, UniProt Q13569); test: as above; type: biochemical; details: compound 30 at 99 µM
T8 construct: made in house
T8 sequence (Q13569 whole entry, species assumed): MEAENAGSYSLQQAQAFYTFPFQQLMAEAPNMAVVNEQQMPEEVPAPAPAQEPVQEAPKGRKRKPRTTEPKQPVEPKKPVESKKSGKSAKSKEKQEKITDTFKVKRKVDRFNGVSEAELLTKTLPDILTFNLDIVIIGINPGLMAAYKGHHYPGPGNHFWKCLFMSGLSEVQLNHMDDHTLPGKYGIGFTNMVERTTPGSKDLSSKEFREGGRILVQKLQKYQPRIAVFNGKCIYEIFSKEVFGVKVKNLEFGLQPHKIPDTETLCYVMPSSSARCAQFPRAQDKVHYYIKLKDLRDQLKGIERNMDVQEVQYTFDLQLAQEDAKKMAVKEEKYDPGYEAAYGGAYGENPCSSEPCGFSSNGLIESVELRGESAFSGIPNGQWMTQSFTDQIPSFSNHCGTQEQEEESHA

NTHL1 = molecular target: T9, NTHL1 (Homo sapiens, UniProt P78549); test: as above; type: biochemical; details: compound 30 at 99 µM
T9 construct: made in house
T9 sequence (P78549 23-304): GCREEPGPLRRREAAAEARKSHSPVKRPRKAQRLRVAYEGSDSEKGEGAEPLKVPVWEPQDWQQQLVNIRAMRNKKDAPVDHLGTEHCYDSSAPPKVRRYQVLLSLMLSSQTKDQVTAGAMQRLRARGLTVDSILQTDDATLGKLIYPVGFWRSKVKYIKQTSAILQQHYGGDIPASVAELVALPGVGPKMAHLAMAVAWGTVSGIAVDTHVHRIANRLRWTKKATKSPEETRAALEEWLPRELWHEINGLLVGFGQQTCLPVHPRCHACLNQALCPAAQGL

NEIL1 = molecular target: T10, NEIL1 (Homo sapiens, UniProt Q96FI4); test: as above; type: biochemical; details: compound 30 at 99 µM
T10 construct: made in house
T10 sequence (Q96FI4 whole entry, species assumed): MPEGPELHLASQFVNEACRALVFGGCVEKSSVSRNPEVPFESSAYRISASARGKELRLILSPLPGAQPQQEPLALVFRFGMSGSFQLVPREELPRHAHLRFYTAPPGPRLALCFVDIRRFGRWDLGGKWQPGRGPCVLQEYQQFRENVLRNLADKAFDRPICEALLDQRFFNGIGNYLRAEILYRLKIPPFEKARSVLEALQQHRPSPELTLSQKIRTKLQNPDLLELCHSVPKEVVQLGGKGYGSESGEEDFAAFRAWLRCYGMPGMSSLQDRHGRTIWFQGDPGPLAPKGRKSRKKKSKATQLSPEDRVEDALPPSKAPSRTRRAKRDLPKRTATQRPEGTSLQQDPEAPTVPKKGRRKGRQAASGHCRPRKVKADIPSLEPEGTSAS

UNG = UNG (Homo sapiens, UniProt P13051); test: as above; type: biochemical; details: compound 30 at 99 µM
UNG, sequence (P13051 94-313 limits assumed): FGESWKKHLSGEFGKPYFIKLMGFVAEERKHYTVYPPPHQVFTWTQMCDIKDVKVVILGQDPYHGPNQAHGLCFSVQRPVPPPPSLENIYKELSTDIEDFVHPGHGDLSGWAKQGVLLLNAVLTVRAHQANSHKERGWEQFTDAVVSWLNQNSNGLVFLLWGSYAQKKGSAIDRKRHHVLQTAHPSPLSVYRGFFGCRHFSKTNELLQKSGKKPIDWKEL

[9] = Microsomal stability assay; type: in vitro ADME, human; details: for half-life at 2 μM: human, liver microsomes
MTH1 = MTH1 (Homo sapiens, UniProt P36639); test: Selectivity screen; type: biochemical; details: compound 30 at 99 µM
APE1 = molecular target: T11, APE1 (Homo sapiens, UniProt P27695); test: Selectivity screen; type: biochemical; details: compound 30 at 99 µM
T11 construct: made in house
T11 sequence (P27695 whole entry, species assumed): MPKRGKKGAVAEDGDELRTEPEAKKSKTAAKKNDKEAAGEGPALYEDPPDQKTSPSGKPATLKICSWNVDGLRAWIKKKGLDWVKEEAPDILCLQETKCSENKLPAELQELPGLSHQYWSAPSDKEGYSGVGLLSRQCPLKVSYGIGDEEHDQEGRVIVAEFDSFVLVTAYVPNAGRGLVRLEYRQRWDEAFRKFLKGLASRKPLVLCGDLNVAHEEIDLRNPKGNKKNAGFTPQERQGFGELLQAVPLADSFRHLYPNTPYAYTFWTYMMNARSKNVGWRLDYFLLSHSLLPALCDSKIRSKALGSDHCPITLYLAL

K249A mutant OGG1 = molecular target: T12, K249A mutant OGG1 (Homo sapiens, UniProt O15527, K249A); test: AP-lyase assay on radiolabeled AP-site-containing oligonucleotide (PAGE); type: biochemical; details: Figure S8
T12 construct: made in house
T12 sequence (O15527 whole entry K249A): as the sequence (O15527 whole entry) above, with K249A counted along it

[10] = Kinetic solubility assay in PBS; type: physicochemical
[11] = Caco-2 permeability assay; type: in vitro ADME; details: human, Caco-2, pH 7.4
Caco-2 cell line = test: Caco-2 permeability assay; type: in vitro ADME
NUDT5 [12] = molecular target: T4, NUDT5; parameters: method as in Hank et al. 1 and Kehler et al. 2; details: reference compound; ref Hank et al. 1 and Kehler et al. 2; cited from earlier work
NUDT15 [13] = molecular target: T5, NUDT15; parameters: method as in Hank et al. 1 and Kehler et al. 2; details: reference compound; ref Hank et al. 1 and Kehler et al. 2; cited from earlier work
[14] = Caco-2, in the presence of P-gp inhibitor (verapamil)

T1 sequence (O15527 whole entry S326C): as the sequence (O15527 whole entry) above, with S326C counted along it

NCCc1c(-c2cccnc2)[nH]c2cc(F)c(O)cc12 [Compound 38, 3-(2-Aminoethyl)-6-fluoro-2-(pyridin-3-yl)-1H-indol-5-ol]
effect on AP-lyase activity of Ser326Cys mutant (S326C hOGG1): accelerated the AP-lyase activity
stimulation of OGG1 AP lyase activity (incised substrate after 4 min) (OGG1 [1]): Stimulation of OGG1 AP lyase activity was observed
incision mode (OGG1 [1]): primarily induced β-elimination
restoration of activity of Lys249Trp mutant (Lys249Trp mutant of OGG1): failed to restore activity
restoration of activity in active site mutants [2]: did not restore activity
effect on level of cross-linked product (Schiff-base formation) (OGG1 [3]): no discernible effect
AC50 (OGG1 [4]; read-out: AC50 (CI95%)): 0.04 µM

NCCc1c(-c2cccnc2)[nH]c2ccc(O)cc12 [Compound 30, 3-(2-Aminoethyl)-2-(pyridin-3-yl)-1H-indol-5-ol]
selectivity [5]: >150-fold
toxicity in words ([6]; BJ-TERT and BJ-RAS cells, 30 at 100 μM over several days): no detectable toxicity
toxicity ([6]; incubation in BJ-RAS and BJ-TERT cell lines): >100 µM
stimulation of OGG1 AP lyase activity (incised substrate after 4 min) (OGG1 [1]): not significant
incision mode (OGG1 [1]): primarily induced β-elimination and β
inhibition (NUDT5 [7]): No effect
inhibition (NUDT15 [8]): No effect
inhibition (NUDT22): No effect
inhibition at 99 µM (MPG): 17%
inhibition at 99 µM (TDG): 55%
inhibition at 99 µM (NTHL1): 25%
inhibition at 99 µM (NEIL1): 13%
inhibition at 99 µM (UNG): 31%
half-life at 2 μM ([9]; pH 7.4, human liver microsomes, read-out: t 1/2): 3.55 h
half-life at 2 μM ([9]; pH 7.4, human microsomes, read-out: microsomal half-life / metabolic stability): > 3.5 h
k el at 2 μM ([9]; pH 7.4, human liver microsomes): 5e-05 s⁻¹
microsomal CLint at 2 μM ([9]; pH 7.4, human liver microsomes): 8 µL/min/mg
inhibition at 99 µM (MTH1): 34%
inhibition (APE1): No effect
effect on level of cross-linked product (Schiff-base formation) (OGG1 [3]): no discernible effect
AcLE (OGG1 [4]; (1.37/#heavy atoms) × pAC50): 0.456
AC50 (OGG1 [4]; AC50 (CI95%)): 0.58 µM
improvement of potency over 1 (OGG1 [4]; AC50 ratio): 10 fold
restoration of AP-lyase activity of Lys249Ala mutant (K249A mutant OGG1): failed to restore AP-lyase activity
higher aqueous solubility compared to TH10785 [10]: 58 fold
solubility at 2 h ([10]; phosphate-buffered saline, 25 °C, pH 7.4, aqueous buffer, kinetic from dmso stock, kinetic solubility in PBS buffer (pH 7.4), read-out: aq. solubility): > 300 µM
Papp A→B at 90 min, 10 µM [11]: 0.53 ×10⁻⁶ cm/s
Papp B→A at 90 min, 10 µM [11]: 2.15 ×10⁻⁶ cm/s
efflux ratio at 90 min, 10 μM ([11]; P app (B to A) / P app (A to B)): 4.1
P app (AB) (Caco-2 cell line; [14]): 1.07 ×10⁻⁶ cm/s
P app (BA) (Caco-2 cell line; [14]): 1.87 ×10⁻⁶ cm/s
P-gp substrate assessment (Caco-2 cell line; decrease of efflux with verapamil): P-gp substrate

NCCc1c(-c2cncc(F)c2)[nH]c2ccc(O)cc12 [Compound 41, 3-(2-Aminoethyl)-2-(5-fluoropyridin-3-yl)-1H-indol-5-ol]
OGG1 activation, SAR result in words (OGG1 [4]): did not significantly affect potency
AC50 (OGG1 [4]; read-out: AC50 (CI95%)): 0.74 µM
restoration of AP-lyase activity of Lys249Ala mutant (K249A mutant OGG1): failed to restore AP-lyase activity

NCCc1c(-c2cccnc2)[nH]c2c(O)cccc12 [Compound 32, 3-(2-Aminoethyl)-2-(pyridin-3-yl)-1H-indol-7-ol]
AC50 (CI95%) (OGG1 [4]): inactive

NCCc1[nH]c2ccc(O)cc2c1-c1cccnc1 [Compound 51, 2-(2-Aminoethyl)-3-(pyridin-3-yl)-1H-indol-5-ol]
AC50 (CI95%) (OGG1 [4]): inactive

NCCc1c(-c2ccccc2)[nH]c2ccccc12 [Compound 7, 2-Phenyltryptamine]
OGG1 activation, SAR result in words (OGG1 [4]): complete loss of activity
AC50 (CI95%) (OGG1 [4]): inactive

COc1ccc2[nH]c(-c3cccnc3)c(CCN)c2c1 [Compound 3, 2-(5-Methoxy-2-(pyridin-3-yl)-1H-indol-3-yl)-ethan-1-amine]
AC50 (CI95%) (OGG1 [4]): inactive

COc1ccc2[nH]c(-c3cccnc3)cc2c1 [Compound 14, 5-Methoxy-2-(pyridin-3-yl)-1H-indole]
AC50 (OGG1 [4]; read-out: AC50 (CI95%)): 13 µM

O=c1[nH]cc(Cc2cccc(OCc3ccccc3)c2)c(=O)[nH]1 [NSC 210777]
AC50 (μM) (OGG1 [4]): inactive

CC1=CC2C(c3ccccc3)Nc3ccccc3N2C1=O (centres unmarked) [NSC 263759]
AC50 (μM) (OGG1 [4]): inactive

NCCc1[nH]c2ccc(O)cc2c1-c1cncnc1 [Compound 53, 2-(2-Aminoethyl)-3-(pyrimidin-5-yl)-1H-indol-5-ol]
OGG1 activation, SAR result in words (OGG1 [4]): some residual activity
AC50 (OGG1 [4]; read-out: AC50 (CI95%)): 12 µM

Cn1c(=O)c2[nH]c(C3CCCCC3)nc2n(C)c1=O [NSC 14383]
AC50 (μM) (OGG1 [4]): inactive

Cn1c(=O)c2c(nc(N3CCNCC3)n2Cc2nnc(-c3ccc(Cl)c(Cl)c3)o2)n(C)c1=O [TH5427]
Reference inhibition (NUDT5 [12]): 99%

O=C1CCCC2=C1C(c1ccncc1)Nc1ccccc1N2 (centres unmarked) [NSC 186218]
AC50 (μM) (OGG1 [4]): inactive

CC(N)Cc1c[nH]c2ccc(Cl)cc12.Cl (centres unmarked) [NSC 50457]
AC50 (μM) (OGG1 [4]): inactive

OCCc1c(-c2cccnc2)[nH]c2ccc(O)cc12 [Compound 47, 3-(2-Hydroxyethyl)-2-(pyridin-3-yl)-1H-indol-5-ol]
AC50 (OGG1 [4]; read-out: AC50 (CI95%)): 8.7 µM
decrease of activity (OGG1 [4]; ethanol derivative versus amine 30): ~10 fold

c1ccc2[nH]c(-c3cncnc3)cc2c1 [Compound 25, 2-(Pyrimidin-5-yl)-1H-indole]
OGG1 activation, SAR result in words (OGG1 [4]): not tolerated
AC50 (CI95%) (OGG1 [4]): inactive

Cc1ccc(-c2cc3ccccc3[nH]2)cn1 [Compound 23, 2-(6-Methylpyridin-3-yl)-1H-indole]
AC50 (OGG1 [4]; read-out: AC50 (CI95%)): 14 µM

O=C(c1ccccc1)[C@H](Nc1ccc2ccccc2c1)c1ccccc1 [NSC 34924]
AC50 (μM) (OGG1 [4]): inactive

NCCc1c(-c2ccccc2)[nH]c2cc(F)ccc12 [Compound 9, 6-Fluoro-2-phenyltryptamine]
AC50 (CI95%) (OGG1 [4]): inactive

CNCCc1c(-c2cccnc2)[nH]c2ccc(O)cc12 [Compound 46, 3-(2-(Methylamino)-ethyl)-2-(pyridin-3-yl)-1H-indol-5-ol]
AC50 (OGG1 [4]; read-out: AC50 (CI95%)): 0.29 µM

O=C(c1ccc2[nH]ccc2c1)N1CCN(S(=O)(=O)c2ccc3[nH]c(=O)oc3c2)CC1 [TH1760]
Reference inhibition (NUDT15 [13]): 96%

CC1(C)CC(=O)C2=C(C1)Nc1ccc(Cl)cc1NC2c1ccccc1 (centres unmarked) [NSC 186216]
AC50 (μM) (OGG1 [4]): inactive

c1ccc2ncc(-c3cc4ccccc4[nH]3)cc2c1 [Compound 27, 3-(1H-Indol-2-yl)-quinoline]
OGG1 activation, SAR result in words (OGG1 [4]): not tolerated
AC50 (CI95%) (OGG1 [4]): inactive
